Data: ChEMBL document CHEMBL5465560, “Selectivity Literature for EUbOPEN Chemogenomic Library” (2024)

Experiments:
[1] = target: T1, Tyrosine-protein kinase ZAP-70 (Homo sapiens) (UniProt P43403); test: Selectivity interaction (Kinase panel (KiNativ target engagement assay in Jurkat cells)) EUB0001635a ZAP70; type: cell-based; details: at 1 µM
T1 sequence (whole entry): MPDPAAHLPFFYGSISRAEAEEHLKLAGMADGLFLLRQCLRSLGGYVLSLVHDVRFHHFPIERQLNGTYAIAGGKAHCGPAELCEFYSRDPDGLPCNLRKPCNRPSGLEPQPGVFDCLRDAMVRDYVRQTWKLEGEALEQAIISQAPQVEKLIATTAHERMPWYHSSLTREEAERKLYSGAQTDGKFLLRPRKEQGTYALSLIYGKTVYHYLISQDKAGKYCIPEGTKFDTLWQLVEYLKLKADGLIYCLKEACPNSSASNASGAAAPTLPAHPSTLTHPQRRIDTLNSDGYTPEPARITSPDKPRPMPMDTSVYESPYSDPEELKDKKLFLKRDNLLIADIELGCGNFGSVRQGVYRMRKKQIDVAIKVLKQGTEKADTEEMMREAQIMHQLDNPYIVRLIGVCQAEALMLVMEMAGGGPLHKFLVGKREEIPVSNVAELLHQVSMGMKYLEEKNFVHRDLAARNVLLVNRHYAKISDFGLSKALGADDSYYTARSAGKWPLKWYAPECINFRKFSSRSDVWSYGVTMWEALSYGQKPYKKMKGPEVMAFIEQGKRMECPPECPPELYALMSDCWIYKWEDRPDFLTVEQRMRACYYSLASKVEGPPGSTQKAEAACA

[2] = target: T2, Serine/threonine-protein kinase D2 (Homo sapiens) (UniProt Q9BZL6); test: Selectivity interaction (SelectScreen profiling (Invitrogen)) EUB0000607a PRKD2; details: at 2 µM
T2 sequence (whole entry): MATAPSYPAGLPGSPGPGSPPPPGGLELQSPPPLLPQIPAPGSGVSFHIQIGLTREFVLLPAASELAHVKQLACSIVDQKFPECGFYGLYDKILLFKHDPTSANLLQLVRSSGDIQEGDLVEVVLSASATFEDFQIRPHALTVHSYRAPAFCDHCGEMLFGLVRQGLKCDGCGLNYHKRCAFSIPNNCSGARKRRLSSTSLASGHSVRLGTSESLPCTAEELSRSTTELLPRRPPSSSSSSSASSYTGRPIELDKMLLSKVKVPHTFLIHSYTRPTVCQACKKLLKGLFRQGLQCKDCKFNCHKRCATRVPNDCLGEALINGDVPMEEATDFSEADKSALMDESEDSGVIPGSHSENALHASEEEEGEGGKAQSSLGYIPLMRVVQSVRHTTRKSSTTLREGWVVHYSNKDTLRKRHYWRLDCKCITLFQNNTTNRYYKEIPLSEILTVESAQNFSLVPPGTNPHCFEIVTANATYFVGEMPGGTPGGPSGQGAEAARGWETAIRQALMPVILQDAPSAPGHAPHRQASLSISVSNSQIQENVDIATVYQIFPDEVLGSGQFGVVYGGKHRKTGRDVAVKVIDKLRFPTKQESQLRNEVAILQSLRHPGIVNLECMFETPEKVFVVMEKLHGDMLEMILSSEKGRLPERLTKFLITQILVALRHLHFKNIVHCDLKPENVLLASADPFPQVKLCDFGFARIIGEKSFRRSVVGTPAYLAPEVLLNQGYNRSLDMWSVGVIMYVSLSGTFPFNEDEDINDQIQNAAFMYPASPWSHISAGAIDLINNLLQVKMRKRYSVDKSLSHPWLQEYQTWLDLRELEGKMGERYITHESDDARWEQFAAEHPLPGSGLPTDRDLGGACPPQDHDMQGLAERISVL

[3] = target: T3, Mitogen-activated protein kinase kinase kinase 5 (Homo sapiens) (UniProt Q99683); test: Selectivity interaction (KinomeScan (DiscoverX)) EUB0000618a MAP3K5; details: at 10 µM
T3 sequence (whole entry): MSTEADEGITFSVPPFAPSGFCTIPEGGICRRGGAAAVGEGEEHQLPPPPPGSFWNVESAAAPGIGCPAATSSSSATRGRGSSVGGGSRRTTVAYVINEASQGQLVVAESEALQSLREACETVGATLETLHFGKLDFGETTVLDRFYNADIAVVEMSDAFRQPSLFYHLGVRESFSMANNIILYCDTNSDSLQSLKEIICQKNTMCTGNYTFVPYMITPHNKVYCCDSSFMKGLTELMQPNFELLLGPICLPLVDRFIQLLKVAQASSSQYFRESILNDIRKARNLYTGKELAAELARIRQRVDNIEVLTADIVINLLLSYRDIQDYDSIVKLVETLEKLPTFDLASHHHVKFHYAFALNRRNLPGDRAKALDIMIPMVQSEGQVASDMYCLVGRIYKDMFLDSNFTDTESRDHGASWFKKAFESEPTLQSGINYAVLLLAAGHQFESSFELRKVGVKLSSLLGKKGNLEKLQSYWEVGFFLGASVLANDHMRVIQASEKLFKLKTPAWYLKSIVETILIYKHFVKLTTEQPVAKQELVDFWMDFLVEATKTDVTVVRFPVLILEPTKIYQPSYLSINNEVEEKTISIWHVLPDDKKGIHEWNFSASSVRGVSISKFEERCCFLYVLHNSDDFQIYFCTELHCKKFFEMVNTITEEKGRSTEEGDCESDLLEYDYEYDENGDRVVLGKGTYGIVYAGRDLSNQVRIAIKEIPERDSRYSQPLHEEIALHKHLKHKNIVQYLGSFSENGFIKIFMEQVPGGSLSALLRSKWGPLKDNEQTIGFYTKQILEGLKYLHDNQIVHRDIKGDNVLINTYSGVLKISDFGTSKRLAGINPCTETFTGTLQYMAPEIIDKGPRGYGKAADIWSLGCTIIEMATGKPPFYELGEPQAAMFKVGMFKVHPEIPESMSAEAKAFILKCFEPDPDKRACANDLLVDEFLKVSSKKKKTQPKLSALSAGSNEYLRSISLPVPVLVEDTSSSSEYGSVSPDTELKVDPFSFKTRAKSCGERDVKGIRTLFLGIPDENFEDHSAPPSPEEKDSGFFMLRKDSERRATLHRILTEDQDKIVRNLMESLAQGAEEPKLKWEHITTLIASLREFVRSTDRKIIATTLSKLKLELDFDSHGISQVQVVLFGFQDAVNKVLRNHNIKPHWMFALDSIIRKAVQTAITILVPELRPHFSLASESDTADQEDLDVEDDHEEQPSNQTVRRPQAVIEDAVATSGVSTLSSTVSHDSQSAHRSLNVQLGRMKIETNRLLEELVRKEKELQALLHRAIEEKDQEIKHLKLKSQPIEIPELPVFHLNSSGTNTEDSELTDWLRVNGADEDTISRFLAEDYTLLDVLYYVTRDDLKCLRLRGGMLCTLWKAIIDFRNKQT

Question: For `C=CC(=O)Nc1ccc(C(=O)Nc2[nH]nc3c2CN(C(=O)N[C@H](CN(C)C)c2ccccc2)C3(C)C)cc1`, which % of engagement ([1]; Selectivity number of off-targets 0.0, Selectivity number of targets 233.0, Source Knowledge https://www.sciencedirect.com/science/article/pii/S2451945619300674?via%3Dihub) is on record?
Answer: -13.8%

Question: What about the % of engagement [1] of the same molecule?
Answer: -8.5%

Question: With `CNC(=O)Nc1ccc(-c2nc(N3CC4CCC(C3)O4)c3cnn(C4CCC5(CC4)OCCO5)c3n2)cc1` as the molecule, how does the % of inhibition [2] read?
Answer: 1%

Question: Which % of control [3] does the source give for `O[C@H]1CC[C@H](Nc2ncc3nc(Nc4c(F)cc(F)cc4F)n([C@H]4CCOC4)c3n2)CC1` here?
Answer: 100%
